How the values were obtained:
Type in all cases: biochemical, human
normal plasma pool (NPP) [1] = assay: PiCT Method 4 (inverted PiCT) clotting time on ACL TOP 500; conditions: for Clotting time: Table 10B, PiCT Method 4, NPP spiked, mean n = 4; for PiCT ® method 4 clotting time: Table 11
Protocol: The present invention is in one aspect directed to the use of a clotting assay, in particular the PiCT® testing method on a detection system such as e.g. the ACL TOP® 500 analyzer and to a method to quantitatively and qualitatively detect anticoagulants in a sample, e.g. blood or plasma. […] PiCT® Method 4 or PiCT® inverted includes that first the start reagent is added to the sample, the mixture allowed to proceed according to the manufacturer's instructions followed by addition of the activator, i.e. a reversed order compared to standard PiCT® (see above). PiCT® Method 1 to 4 is described in more detail in the Examples.
(§1) The 4 methods (see above) are in more detail described in the Examples. Specific pipetting schemes were designed using NPP spiked with incremental amounts of anticoagulants in order to achieve high reproducibility of the test system, which is required for drug identification including use in a POC system. With regards to the ACL TOP® 500 analyzer, PiCT® Method 1 to 4 has been established as follows: • PiCT® Method 1: 50 μl of plasma is incubated for 180 sec with 50 μl of reagent 1 and afterwards 50 μl of reagent 2 is added and the time to clot is recorded on the ACL TOP® 500 (i.e. pipetting scheme: P-50/A-50/I-180/50-S).
After calculation of the RR for the different kind of anticoagulants (see Example 1) samples of NPP spiked with incremental amounts of anticoagulants were used in the ACL TOP® 500, wherein 45 μl start reagent was incubated with 140 μl plasma for 60 sec. The time to clot was recorded after addition of 40 μl of activator (i.e. so-called inverted PiCT®).

plasma samples [2] = assay: aPTT (HemosIL aPTT SP) clotting time; conditions: Table 6, spiked plasma, mean
Protocol: (§2) In order to address the above question, i.e. to determine the nature of an anticoagulant in a sample, a combination of several methods has to be performed, including PiCT® Method 1, PiCT® Method 4, aPTT (HemosIL™ aPTT SP), PT (HemosIL™ PT recombiplastin), and sometimes even a modified PiCT® Method 1 wherein polybrene has been added. In order to simulate this, plasma samples spiked with different levels of anticoagulants were analyzed using the ACL TOP® 500 analyzer. For each drug, a specific pattern was obtained, i.e. clotting times within the RR and clotting times above the RR, depending on the used testing method, which is unique at least for the class of anticoagulant or even for a specific anticoagulant.

normal plasma pool (NPP) [3] = assay: PiCT Method 1 (standard Pefakit PiCT) clotting time on ACL TOP 500; conditions: for Clotting time with PiCT ® Method 1: spiked plasma; for Clotting time: Table 7C, PiCT Method 1, NPP spiked, mean n = 4
Source text: As described by Korte et al. (supra) or in EP 1240528, Pefakit® PiCT® is a functional clotting assay based on the direct activation of the prothrombinase complex which results in a fine-tuned analytical output directly proportional to the final anticoagulant activity of the factor Xa or factor IIa inhibitors (see Calatzis, Haemostasis 2000, 30:172-174). To perform the Pefakit® PiCT® test (referred to herein as standard “PiCT® or PiCT® Method 1), a defined amount of PiCT® activator (=reagent 1) is added to a sample, such as, e.g., plasma. The mixture is allowed to proceed at 37° C. for a specific period of time. The Start reagent (=reagent 2) is then added to the mixture and the time required for clot formation is measured. The presence of anticoagulants in the samples dose-dependently prolongs the time to clot. Pefakit® PiCT® is adapted to laboratory instruments based on mechanical or optical detection systems, including but not limited to ACL TOP® family (Instrumentation Laboratory), preferably ACL TOP® 500, STA Compact® series (Stago) or the BCS® XP series (Siemens).
as §1, with “P-50/A-50/I-180/50-S). This method is in particularly useful for detection of UFH, LMWH or hirudin. • PiCT® Method 2: P-75/A-65/I-180/35-S on the ACL TOP® 500 or P-80/A-65/I-180/40-S on the STA Compact® or P-75/A-65/I-180/S-40 on the BCS® XP. This method is in particularly useful for fondaparinux. • PiCT® Method 3: P-90/A-70/I-180/40-S on the ACL TOP® 500 or STA Compact®, or P-70/A-60/I-180/45-S on the BCS® XP. This method is in particularly useful for dabigatran or argatroban. • PiCT® Method 4: P-140/S-45/I160/A-40 on the ACL TOP® 500 or STA Compact®, or P-125/S-45/I-150/A-40 on the BCS® XP. This method is in particularly useful for rivaroxaban or apixaban.” for “P-50/A-50/I-180/50-S).”
With the normal PiCT®, i.e. PiCT® Method 1, wherein 50 μl of plasma is mixed with the same amount of reagent 1 (PiCT® activator), incubated for 180 sec and mixed with the same amount of reagent 2 (PiCT® start reagent) in a ACL TOP® 500 analyzer, the presence of NOACs cannot be determined in a sample. This is true even at high levels of said drugs in the sample, i.e. in the range of 300 ng/ml. Thus, in order to determine which NOAC is present in the sample, a combination of PiCT® Method 1 and PiCT® method 4 has to be used (see above for detailed description). To confirm this, spiked plasma samples with different levels of NOACs were prepared and the clotting time measured using first PiCT® Method 1 followed by PiCT® Method 4. […] In case of dabigatran present in the sample, both PiCT® Method 1 (which had to be adapted, i.e. PiCT® Method 3) and 4 are out of range as indicated in bold.

plasma samples [4] = assay: PT (HemosIL PT recombiplastin) clotting time; conditions: Table 6, spiked plasma, mean
Protocol: In order to address the above question, i.e. to determine the nature of an anticoagulant in a sample, a combination of several methods has to be performed, including PiCT® Method 1, PiCT® Method 4, aPTT (HemosIL™ aPTT SP), PT (HemosIL™ PT recombiplastin), and sometimes even a modified PiCT® Method 1 wherein polybrene has been added. In order to simulate this, plasma samples spiked with different levels of anticoagulants were analyzed using the ACL TOP® 500 analyzer.

plasma samples [5] = assay: PiCT Method 1 with polybrene added, clotting time; conditions: Table 6, spiked plasma, mean
Source text: By the addition of polybrene a distinction can be done, which of the anticoagulants is really present in the sample: if after addition of polybrene the measured clotting times are again back to RR when using the PiCT® Method 1, the sample comprises heparins, such as e.g. UFH or LMWH. Alternatively, if the result is not going back to RR, the sample comprises low concentrations of dabigatran or hirudin. […] The particular clotting times measured for the different anticoagulants are shown in Table 6, which is an example of results obtained in spiked plasma samples.
as §2

COc1ccc(-n2nc(C(N)=O)c3c2C(=O)N(c2ccc(N4CCCCC4=O)cc2)CC3)cc1 [apixaban]
Clotting time with PiCT ® Method 4 (normal plasma pool (NPP) [1]; Table 4, NPP spiked with 20 ng per ml): 45 s
Clotting time with PiCT ® Method 4 (normal plasma pool (NPP) [1]; Table 4, NPP spiked with 35 ng per ml): 54 s
Clotting time with PiCT ® Method 4 (normal plasma pool (NPP) [1]; Table 5, spiked plasma, 20 ng per ml): 45 s
Clotting time with PiCT ® Method 4 (normal plasma pool (NPP) [1]; Table 5, spiked plasma, 35 ng per ml): 54 s
Clotting time with PiCT ® Method 4 (normal plasma pool (NPP) [1]; Table 5, spiked plasma, 300 ng per ml): 124.3 s
Clotting time with PiCT ® Method 4 (normal plasma pool (NPP) [1]; Table 6, spiked plasma, 50 ng, mean): 54.4 s
Clotting time with PiCT ® Method 4 (normal plasma pool (NPP) [1]; Table 6, spiked plasma, 200 ng, mean): 151.0 s
Clotting time (normal plasma pool (NPP) [1]; 5 ng/ml): 65 s
Clotting time (normal plasma pool (NPP) [1]; 10 ng/ml): 74 s
Clotting time (normal plasma pool (NPP) [1]; 50 ng/ml): 109 s
Clotting time (normal plasma pool (NPP) [1]; 100 ng/ml): 136 s
Clotting time (normal plasma pool (NPP) [1]; 200 ng/ml): 167 s
Clotting time (normal plasma pool (NPP) [1]; 500 ng/ml): 233 s
PiCT ® method 4 clotting time (normal plasma pool (NPP) [1]; spiked plasma, 20 ng/mL (wash off level)): 45 sec (n = 3)
PiCT ® method 4 clotting time (normal plasma pool (NPP) [1]; spiked plasma, 35 ng/mL (wash off level)): 54 sec (n = 3)
Clotting time with aPTT (plasma samples [2]; 50 ng): 31.0 s
Clotting time with aPTT (plasma samples [2]; 200 ng): 36.4 s
Clotting time with PiCT ® Method 1 (normal plasma pool (NPP) [3]; Table 5, 20 ng per ml (title: Method 3 for dabigatran)): 18 s
Clotting time with PiCT ® Method 1 (normal plasma pool (NPP) [3]; Table 5, 35 ng per ml (title: Method 3 for dabigatran)): 18 s
Clotting time with PiCT ® Method 1 (normal plasma pool (NPP) [3]; Table 5, 300 ng per ml (title: Method 3 for dabigatran)): 24.9 s
Clotting time with PiCT ® Method 1 (normal plasma pool (NPP) [3]; Table 6, 50 ng, mean): 18.9 s
Clotting time with PiCT ® Method 1 (normal plasma pool (NPP) [3]; Table 6, 200 ng, mean): 22.3 s
Clotting time with PT (plasma samples [4]; 50 ng): 11.2 s

lepirudin [hirudin]
Clotting time with PiCT ® Method 4 (normal plasma pool (NPP) [1]; Table 4, NPP spiked with 0.4 μg per ml): 300 s
Clotting time with PiCT ® Method 4 (normal plasma pool (NPP) [1]; Table 6, spiked plasma, 0.4 μg, mean): 300.0 s
Clotting time with PiCT ® Method 4 (normal plasma pool (NPP) [1]; Table 6, spiked plasma, 2.5 μg, mean): 300.0 s
Clotting time with aPTT (plasma samples [2]; 0.4 μg): 60.6 s
Clotting time with aPTT (plasma samples [2]; 2.5 μg): 108.8 s
Clotting time with PiCT ® Method 1 (normal plasma pool (NPP) [3]; Table 6, 0.4 μg, mean): 88.9 s
Clotting time with PiCT ® Method 1 (normal plasma pool (NPP) [3]; Table 6, 2.5 μg, mean): 264.5 s
Clotting time (normal plasma pool (NPP) [3]; 0.2 μg/ml): 41 s
Clotting time (normal plasma pool (NPP) [3]; 0.4 μg/ml): 55 s
Clotting time (normal plasma pool (NPP) [3]; 0.6 μg/ml): 69 s
Clotting time (normal plasma pool (NPP) [3]; 0.9 μg/ml): 86 s
Clotting time (normal plasma pool (NPP) [3]; 1.3 μg/ml): 113 s
Clotting time (normal plasma pool (NPP) [3]; 1.7 μg/ml): 142 s
Clotting time (normal plasma pool (NPP) [3]; 2.0 μg/ml): 158 s
Clotting time (normal plasma pool (NPP) [3]; 2.4 μg/ml): 183 s
Clotting time (normal plasma pool (NPP) [3]; 2.8 μg/ml): 209 s
Clotting time (normal plasma pool (NPP) [3]; 3.0 μg/ml): 219 s
Clotting time with PiCT ® Method 1 + polybrene (plasma samples [5]; 0.4 μg): 89.5 s
Clotting time with PiCT ® Method 1 + polybrene (plasma samples [5]; 2.5 μg): 258.0 s
Clotting time with PT (plasma samples [4]; 0.4 μg): 11.8 s
Clotting time with PT (plasma samples [4]; 2.5 μg): 14.6 s
